This note sets out measurements from patent US11951094B2, “TLR2 modulator compounds, pharmaceutical compositions and uses thereof” (Axial Therapeutics, Inc., priority 2020, dated 2024).

Type in all cases: cell-based
Experiment [1] has as its target T1, TLR2 (Homo sapiens, UniProt O60603). The experiment can be described thus: TLR2 agonist screening assay, HEK-Blue TLR2 reporter cell line (NF-kB-driven SEAP, absorbance at 600 nm). More on the design: host or cells: HEK-293 (HEK-Blue TLR2 reporter cell line). The conditions noted are these: HEK-Blue TLR2 reporter cells, agonist mode. In a few lines: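 EC50 values come from dilution series of agonist on TLR2-transfected HEK-293 reporter cells carrying an NF-kB-SEAP construct. Cells sat overnight with compound in substrate-containing Detection medium at 1% DMSO, and secreted phosphatase activity was quantified as absorbance at 600 nm.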

In experiment [2] the target is T1, TLR2. Nature of the experiment: TLR2 in vitro functional assay, cytokine release from human monocytic cell line THP-1. The conditions noted are these: THP-1 human monocytic cell line, average of all runs. The procedure: (§1) Cells of the immune system respond to TLR agonists in part by secreting cytokines. Functional assays for TLR2 agonists measure cytokine release from purified immune cells or immortalized cell lines derived from immune cells. Cytokine release is measured by standard ELISA approaches or multiplexed analysis using the Meso Scale Discovery (MSD) platform.
Following assay measurements utilizing either HEK-Blue detection or cytokine release, all data is analyzed with the GraphPad Prism8 statistical package to determine EC50, binding and activity metrics for the TLR2 modulators. […]
(§2) Numerous cell lines derived from various cell types can respond to TLR2 agonists with stereotyped cytokine and chemokine secretion. In particular, cell lines derived from macrophages respond robustly to TLR2 agonists by secreting a wide array of cytokines, including (but not limited to) TNF-alpha, IL-1, IL-10 and IL-12. The human monocytic cell line THP-1, the mouse macrophage line RAW-264.7, and the rat macrophage line NR8383 were used. For each assay, the respective cell lines were plated into 96-well plates overnight and then treated the following day with various TLR2-engaging compounds at varying concentrations. The next day, supernatants were collected and assayed by multiplex immunodetection for cytokines released (MSD detection kits for respective species).
(§3) Data provided in Table 5 is generated using protocols described in Example 45 and 46.

Experiment [3] deals with T2, TLR2 (Mus musculus, UniProt Q9QUN7).
T2 construct: endogenous in cells; host or cells: RAW 264.7
T2 sequence (Q9QUN7 25-784): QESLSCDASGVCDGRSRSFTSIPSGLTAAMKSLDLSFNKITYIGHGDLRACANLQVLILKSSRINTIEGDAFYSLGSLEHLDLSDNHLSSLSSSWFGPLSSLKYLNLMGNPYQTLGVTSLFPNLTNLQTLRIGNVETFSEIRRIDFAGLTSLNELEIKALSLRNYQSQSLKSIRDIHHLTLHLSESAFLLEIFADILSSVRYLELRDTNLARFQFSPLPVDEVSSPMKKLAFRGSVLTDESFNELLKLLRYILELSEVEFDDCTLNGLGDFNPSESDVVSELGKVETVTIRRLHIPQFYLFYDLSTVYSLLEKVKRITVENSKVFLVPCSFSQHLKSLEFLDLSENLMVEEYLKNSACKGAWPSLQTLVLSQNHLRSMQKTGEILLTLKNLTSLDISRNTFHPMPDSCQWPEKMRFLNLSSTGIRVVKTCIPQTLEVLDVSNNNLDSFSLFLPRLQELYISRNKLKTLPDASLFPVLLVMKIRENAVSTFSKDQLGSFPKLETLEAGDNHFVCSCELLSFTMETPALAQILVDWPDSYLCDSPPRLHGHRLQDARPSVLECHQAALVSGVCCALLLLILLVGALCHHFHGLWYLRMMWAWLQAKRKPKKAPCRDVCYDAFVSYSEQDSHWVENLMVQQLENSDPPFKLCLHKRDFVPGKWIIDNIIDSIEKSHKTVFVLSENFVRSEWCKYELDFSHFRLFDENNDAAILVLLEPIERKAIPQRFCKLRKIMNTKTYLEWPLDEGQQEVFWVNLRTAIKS
The experiment can be described thus: TLR2 functional assay, cytokine release from RAW 264.7 mouse macrophage cell line. The conditions noted are these: average of all runs. As to the method: as §1
Purified primary human peripheral blood mononuclear cells or RAW 264.7 mouse macrophage cell line cells are plated at approximately 40,000 cells per well. Cells are treated with agonist compounds and assays 6-24 hours post-treatment for cytokines released into the cell culture media.
Following assay measurements utilizing either HEK-Blue detection or cytokine release, all data is analyzed with the GraphPad Prism8 statistical package to determine EC50, binding and activity metrics for the TLR2 modulators.
as §2, §3

T1 sequence (O60603 21-784): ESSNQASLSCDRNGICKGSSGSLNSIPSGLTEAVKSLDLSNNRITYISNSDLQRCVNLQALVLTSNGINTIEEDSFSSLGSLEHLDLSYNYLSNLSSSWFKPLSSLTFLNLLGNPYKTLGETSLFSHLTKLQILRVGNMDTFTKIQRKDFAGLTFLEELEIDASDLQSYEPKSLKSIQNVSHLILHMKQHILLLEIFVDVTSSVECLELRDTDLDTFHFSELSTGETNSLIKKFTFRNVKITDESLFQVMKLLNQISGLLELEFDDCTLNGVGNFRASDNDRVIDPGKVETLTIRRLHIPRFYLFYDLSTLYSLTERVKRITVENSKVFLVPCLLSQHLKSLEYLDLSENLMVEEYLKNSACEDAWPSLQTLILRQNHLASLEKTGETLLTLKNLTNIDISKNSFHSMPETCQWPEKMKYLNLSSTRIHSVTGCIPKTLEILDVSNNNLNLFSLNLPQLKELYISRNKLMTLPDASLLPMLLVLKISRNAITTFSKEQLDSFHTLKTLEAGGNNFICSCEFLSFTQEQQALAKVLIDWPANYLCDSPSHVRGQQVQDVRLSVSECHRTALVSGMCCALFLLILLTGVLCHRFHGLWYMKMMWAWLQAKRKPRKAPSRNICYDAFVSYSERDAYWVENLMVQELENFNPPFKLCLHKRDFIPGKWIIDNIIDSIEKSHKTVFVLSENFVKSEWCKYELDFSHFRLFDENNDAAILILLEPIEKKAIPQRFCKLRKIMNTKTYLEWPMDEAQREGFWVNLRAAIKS

Consider `CCCCCCCCCCCCCCNC(=O)[C@@H]1CCCN(C(=O)c2ccc(C(=O)N3C[C@@H](C(=O)N[C@H]4C[C@@H]4c4ccccc4)[C@H](C(=O)N[C@H]4C[C@@H]4c4ccccc4)C3)cc2)C1` [Compound 102, (3S,4S)—N3,N4-bis((1S,2R)-2-phenylcyclopropyl)-1-(4-((R)-3-(tetradecylcarbamoyl)piperidine-1-carbonyl)benzoyl) pyrrolidine-3,4-dicarboxamide], for which the half-maximal effective concentration (EC50) on TLR2 [1] (average of all runs (Table 4)) and on TLR2 [2] was 0.1 to 50 nM in each case.
On to `CCCCCCCCN1C(=O)CN(C(=O)c2ccc(C(=O)N3C[C@@H](C(=O)N[C@H]4C[C@@H]4c4ccccc4)[C@H](C(=O)N[C@H]4C[C@@H]4c4ccccc4)C3)cc2)C[C@@H]1C(=O)NCCCCCC` [Compound 075, (3S,4S)-1-(4-((R)-3-(hexylcarbamoyl)-4-octyl-5-oxopiperazine-1-carbonyl)benzoyl)-N3,N4-bis((1S,2R)-2-phenylcyclopropyl)pyrrolidine-3,4-dicarboxamide], for which the EC50 was 51 to 350 nM at TLR2 [1] (average of all runs (Table 3)) and 0.1 to 50 nM at TLR2 [2].
With `CCCCCCCCCCCCCCNC(=O)C1CN(C(=O)c2ccc(C(=O)N3C[C@@H](C(=O)N[C@H]4C[C@@H]4c4ccccc4)[C@H](C(=O)N[C@H]4C[C@@H]4c4ccccc4)C3)cc2)CCN1` (mixture of isomers) [Compound 054, (3S,4S)—N3,N4-bis ((1S,2R)-2-phenylcyclopropyl)-1-(4-(3-(tetradecylcarbamoyl)piperazine-1-carbonyl)benzoyl) pyrrolidine-3,4-dicarboxamide], the concentration giving a half-maximal response (EC50) at TLR2 [1] (average of all runs (Table 3)) fell in the range of 51 to 350 nM; at TLR2 [2], 0.1 to 50 nM.
As for `CCCCCCCCCCCCCCNC(=O)[C@@H]1CN(C(=O)c2ccc(C(=O)N3C[C@@H](C(=O)N[C@H]4C[C@@H]4c4ccccc4)[C@H](C(=O)N[C@H]4C[C@@H]4c4ccccc4)C3)cc2)C[C@@H]1O` (single isomer, unassigned) [Compound 044, (3S,4S)-1-(4-((3R*,4R*)-3-hydroxy-4-(tetradecylcarbamoyl)pyrrolidine-1-carbonyl)benzoyl)-N3,N4-bis((1S,2R)-2-phenylcyclopropyl)pyrrolidine-3,4-dicarboxamide], the EC50 at TLR2 [1] (average of all runs (Table 3)) and at TLR2 [2] was 0.1 to 50 nM each time.
For the compound `CCCCCCCC(=O)N1CCN(C(=O)c2ccc(C(=O)N3C[C@@H](C(=O)N[C@H]4C[C@@H]4c4ccccc4)[C@H](C(=O)N[C@H]4C[C@@H]4c4ccccc4)C3)cc2)CC1C(=O)NCCc1ccc(F)cc1` (stereo partly drawn) [Compound 036, (3S,4S)-1-(4-(3-((4-fluorophenethyl)carbamoyl)-4-octanoylpiperazine-1-carbonyl)benzoyl)-N3,N4-bis((1S,2R)-2-phenylcyclopropyl)pyrrolidine-3,4-dicarboxamide], the EC50 at TLR2 [1] (average of all runs (Table 3)) and at TLR2 [2] was 0.1 to 50 nM each time.
On to `CCCCCCCCCCCCCCNC(=O)[C@H]1CN(C(=O)c2ccc(C(=O)N3C[C@@H](C(=O)N[C@H]4C[C@@H]4c4ccccc4)[C@H](C(=O)N[C@H]4C[C@@H]4c4ccccc4)C3)cc2)C[C@@H]1OC` [Compound 110, (3S,4S)-1-(4-((3R,4S)-3-methoxy-4-(tetradecylcarbamoyl)pyrrolidine-1-carbonyl)benzoyl)-N3,N4-bis((1S,2R)-2-phenylcyclopropyl)pyrrolidine-3,4-dicarboxamide], for which the 50% effective concentration (EC50) on TLR2 [1] (average of all runs (Table 4)) and at TLR2 [2] was 0.1 to 50 nM in each case.
`CCCCCCCCC(=O)N[C@@H](Cn1cc(-c2ccc(C(=O)N3C[C@@H](C(=O)N[C@H]4C[C@@H]4c4ccccc4)[C@H](C(=O)N[C@H]4C[C@@H]4c4ccccc4)C3)cc2)nn1)C(=O)NCCCCCC` [Compound 212, (3S,4S)-1-(4-(1-((S)-3-(hexylamino)-2-nonanamido-3-oxopropyl)-1H-1,2,3-triazol-4-yl)benzoyl)-N3,N4-bis ((1S,2R)-2-phenylcyclopropyl) pyrrolidine-3,4-dicarboxamide]: the EC50 on TLR2 [1] (average of all runs (Table 4)) lay within 0.1 to 50 nM; at TLR2 [3], 351 to 1000 nM.
Taken in the same sequence, the figures for `CCCCCCCCNC(=O)[C@H](CNC(=O)c1ccc(C(=O)N2C[C@@H](C(=O)N[C@H]3C[C@@H]3c3ccccc3)[C@H](C(=O)N[C@H]3C[C@@H]3c3ccccc3)C2)cc1)NC(=O)CCCCCCCC` [Compound 197, (3S,4S)-1-(4-(((S)-2-nonanamido-3-(octylamino)-3-oxopropyl)carbamoyl)benzoyl)-N3,N4-bis((1S,2R)-2-phenylcyclopropyl)pyrrolidine-3,4-dicarboxamide] were 0.1 to 50 nM and 351 to 1000 nM.
With `O=C(N[C@@H](CNC(=O)c1ccc(C(=O)N2C[C@@H](C(=O)N[C@H]3C[C@@H]3c3ccccc3)[C@H](C(=O)N[C@H]3C[C@@H]3c3ccccc3)C2)cc1)C(=O)N[C@H]1C[C@@H]1c1ccccc1)N[C@H]1C[C@@H]1c1ccccc1` [Compound 223, (3S,4S)-1-(4-(((S)-3-oxo-3-(((1S,2R)-2-phenylcyclopropyl)amino)-2-(3-((1S,2R)-2-phenylcyclopropyl)ureido)propyl)carbamoyl)benzoyl)-N3,N4-bis((1S,2R)-2-phenylcyclopropyl)pyrrolidine-3,4-dicarboxamide], the results for the EC50 on TLR2 [1] (average of all runs (Table 4)) and at TLR2 [3] were more than 1000 nM and 351 to 1000 nM, respectively.
Take `CCCCCCCCCC(=O)N[C@@H](CNC(=O)c1ccc(C(=O)N2C[C@@H](C(=O)N[C@H]3C[C@@H]3c3ccccc3)[C@H](C(=O)N[C@H]3C[C@@H]3c3ccccc3)C2)cc1)C(=O)NCCCCCC` [Compound 175, (3S,4S)-1-(4-(((S)-2-decanamido-3-(hexylamino)-3-oxopropyl)carbamoyl)benzoyl)-N3,N4-bis ((1S,2R)-2-phenylcyclopropyl) pyrrolidine-3,4-dicarboxamide]: the half-maximal effective concentration (EC50) on TLR2 [1] (average of all runs (Table 4)) fell in the range of 0.1 to 50 nM; on TLR2 [3], 51 to 350 nM.
For the compound `CCCCCCCCC(=O)N[C@@H](CNC(=O)c1ccc(C(=O)N2C[C@@H](C(=O)N[C@H]3C[C@@H]3c3ccccc3)[C@H](C(=O)N[C@H]3C[C@@H]3c3ccccc3)C2)cc1)C(=O)NCCCCCC` [Compound 140, (3S,4S)-1-(4-(((S)-3-(hexylamino)-2-nonanamido-3-oxopropyl)carbamoyl)benzoyl)-N3,N4-bis((1S,2R)-2-phenylcyclopropyl)pyrrolidine-3,4-dicarboxamide], the EC50 at TLR2 [1] (average of all runs (Table 4)) is 0.1 to 50 nM; on TLR2 [3], 51 to 350 nM.
`CCCCCCCCCCCNC(=O)N[C@H]1CN(C(c2ccc(C(=O)N3C[C@@H](C(=O)N[C@H]4C[C@@H]4c4ccccc4)[C@H](C(=O)N[C@H]4C[C@@H]4c4ccccc4)C3)cc2)C(F)(F)F)C[C@@H]1OC` (single isomer, unassigned) [Compound 231, (3S,4S)—N3,N4-bis((1S,2R)-2-phenylcyclopropyl)-1-(4-((S*)-2,2,2-trifluoro-1-((3S,4S)-3-methoxy-4-(3-undecylureido)pyrrolidin-1-yl)ethyl)benzoyl)pyrrolidine-3,4-dicarboxamide]: the half-maximal effective concentration (EC50) at TLR2 [1] (average of all runs (Table 4)) is 0.1 to 50 nM; on TLR2 [3] it was 51 to 350 nM.
Consider `CCCCCCCCCCCNC(=O)N[C@H]1CN(C(=O)c2ccc(C(=O)N3C[C@@H](C(=O)N[C@H]4C[C@@H]4c4ccccc4)[C@H](C(=O)N[C@H]4C[C@@H]4c4ccccc4)C3)cc2)C[C@@H]1OC` [Compound 199, (3S,4S)-1-(4-((3S,4S)-3-methoxy-4-(3-undecylureido)pyrrolidine-1-carbonyl)benzoyl)-N3,N4-bis((1S,2R)-2-phenylcyclopropyl)pyrrolidine-3,4-dicarboxamide], for which the EC50 is 0.1 to 50 nM at TLR2 [1] (average of all runs (Table 4)) and more than 1000 nM at TLR2 [3].
With `CCCCCCCCCCCCCCNC(=O)N[C@@H]1CCCN(C(=O)c2ccc(C(=O)N3C[C@@H](C(=O)N[C@H]4C[C@@H]4c4ccccc4)[C@H](C(=O)N[C@H]4C[C@@H]4c4ccccc4)C3)cc2)C1` [Compound 206, (3S,4S)—N3,N4-bis((1S,2R)-2-phenylcyclopropyl)-1-(4-((R)-3-(3-tetradecylureido)piperidine-1-carbonyl)benzoyl)pyrrolidine-3,4-dicarboxamide], the concentration giving a half-maximal response (EC50) is 0.1 to 50 nM at TLR2 [1] (average of all runs (Table 4)) and more than 1000 nM on TLR2 [3].
For the compound `CCCCCCCCCCCCCNC(=O)N[C@@H](CNC(=O)c1ccc(C(=O)N2C[C@@H](C(=O)N[C@H]3C[C@@H]3c3ccccc3)[C@H](C(=O)N[C@H]3C[C@@H]3c3ccccc3)C2)cc1)COC` [Compound 198, (3S,4S)-1-(4-(((S)-3-methoxy-2-(3-tridecylureido)propyl)carbamoyl)benzoyl)-N3,N4-bis((1S,2R)-2-phenylcyclopropyl)pyrrolidine-3,4-dicarboxamide], the concentration for a half-maximal effect (EC50) at TLR2 [1] (average of all runs (Table 4)) and at TLR2 [3] was more than 1000 nM throughout.
